Laboratory results: patent US6436682B1, “Luciferases, fluorescent proteins, nucleic acids encoding the luciferases and fluorescent proteins and the use thereof in diagnostics, high throughput screening and novelty items” (Prolume, Ltd., priority 1998, dated 2002)
Like-named read-outs stand apart in the source and are kept apart here.

Assays:
Renilla luciferase = biological target: T1, Renilla luciferase (Renilla reniformis, UniProt P27652); conditions: cited from earlier work
T1 sequence (P27652 1-311): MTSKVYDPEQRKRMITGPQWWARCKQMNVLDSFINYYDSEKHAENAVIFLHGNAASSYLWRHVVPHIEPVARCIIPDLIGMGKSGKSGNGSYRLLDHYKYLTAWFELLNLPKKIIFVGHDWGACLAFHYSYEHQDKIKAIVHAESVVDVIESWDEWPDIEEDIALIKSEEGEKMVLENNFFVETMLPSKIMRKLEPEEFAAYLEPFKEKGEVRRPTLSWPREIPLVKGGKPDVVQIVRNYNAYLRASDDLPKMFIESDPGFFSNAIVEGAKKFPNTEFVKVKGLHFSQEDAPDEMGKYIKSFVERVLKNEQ

[1] = assay type: physicochemical
Excerpt: Coelenterazine is not terribly soluble in non-irritant vehicles. Coelenterazine is soluble to at least to a concentration of 200 micrograms/mL in a solution of 2% (w/v) PEG 400 containing about 0.8% (w/v) NaCl. Although this solution is slightly hypertonic, it is not an irritant for vehicle purposes.

mice = assay: Repeated i.p. administration, gross signs of toxicity in behavior; assay type: in vivo; conditions: 1 mg/kg i.p., daily administration for three days
Method: […] Mice are examined over the course of the study for any gross signs of toxicity as evidenced in their behavior. At the end of the one-week period, blood is collected by cardiac puncture immediately prior to sacrifice. Animals are sacrificed and ten different tissue samples are removed post mortem from each animal. Isolated tissues are fixed, stained, blocked and sectioned. The pathology of the tissue samples are analyzed and the toxicology data are compiled.

HeLa cells = assay: Functional expression of Renilla mulleri GFP in mammalian cells; assay type: cell-based; conditions: 30 micrograms pcDNA-Renilla mulleri GFP DNA, 37° C., 8 hours, CMV promoter
Excerpt: HeLa cells were transfected with the plasmid pcDNA3.1(+) containing Renilla mulleri GFP under the control of a CMV promoter (construct No. B(1) as described above). […]
The fluorescence was localized to pairs of cells that were undergoing, or apparently had recently undergone, a single round of cell-division. […] This is in contrast to the Aequorea GFP, which folds inefficiently into a functional form under the physiological conditions.
Filters (470/40 excitation filter, 495 excitation dichroic filter and 525/50 emission filter) used in visualization of R. mulleri GFP fluorescence in HeLa cells were the Endo GFP filter set sold by Chroma.

[2] = Renilla luciferase, in the presence of Renilla GFP
[3] = Renilla luciferase, without GFP

O=C(Cc1ccc(O)cc1)NC1N=CC(c2ccccc2)=NC1Cc1ccccc1 (stereo not drawn) [coelenterazine of formula (V)]
bioluminescence quantum yield (Renilla luciferase; [2]): 2.3%
bioluminescence quantum yield (Renilla luciferase; [3]): about 0.012%
peak of emitted light (Renilla luciferase; luciferase, upon addition of GFP): 509 nm

coelenterazine
bioluminescence quantum yield (Renilla luciferase; [2]): 13%
increase in the amount of light emitted upon addition of GFP (Renilla luciferase; Renilla luciferase, with versus without GFP): nearly two-fold
bioluminescence quantum yield (Renilla luciferase; [3]): 6.9%
solubility [1]: ≥ 200 micrograms/mL
gross behavior changes (mice): no gross behavior changes

B1: Renilla mulleri GFP: green fluorescent protein of Renilla mulleri, 238 amino acids, SEQ ID No. 16 (protein, listed as Renilla mulleri)
chain: MSKQILKNTCLQEVMSYKVNLEGIVNNHVFTMEGCGKGNILFGNQLVQIRVTKGAPLPFAFDIVSPAFQYGNRTFTKYPNDISDYFIQSFPAGFMYERTLRYEDGGLVEIRSDINLIEDKFVYRVEYKGSNFPDDGPVMQKTILGIEPSFEAMYMNNGVLVGEVILVYKLNSGKYYSCHMKTLMKSKGVVKEFPSYHFIQHRLEKTYVEDGGFVEQHETAIAQMTSIGKPLGSLHEWV
modifications: Renilla mulleri Green Fluorescent Protein (GFP)
fluorescence of transfected cells (HeLa cells): highly fluorescent
